Measured values taken from patent US20170246210A1, “EX-VIVO INDUCED REGULATORY MESENCHYMAL STEM CELLS OR MYELOID-DERIVED SUPPRESSOR CELLS AS IMMUNE MODULATORS” (HADASIT MEDICAL RESEARCH SERVICES & DEVELOPMENT LTD, priority 2014, published 2017).

How the values were obtained:
mMSCs [1] = assay: qPCR expression analysis in treated mouse MSCs; type: cell-based; conditions: for IL-6 mRNA expression: combination treatments, with/without 10 μM CH-223191; for COX2 mRNA expression: qPCR, combinations of TGFβ, IFNγ, kynurenine
Description: MSCs isolation and culture. Mouse MSCs (mMSCs) were obtained from the bone marrow (BM) of C57BL/6 mice. BM cells were cultured at a concentration of 1*10^6 cells/ml in Mesencult basal medium supplemented with MSC stimulatory supplements (StemCell Technologies, Vancouver, BC), at 37° C. with 10% CO2. After 2-3 passages, the cells were harvested and CD11b^+ cells were depleted by EasySep® cell separation kit (StemCell Technologies, Vancouver, BC). Cells from 3 different lines were used for experiments after 5-20 passages.
(§1) TCT MSCs were treated with 40pM hTGFβ (PeproTech, Israel) for 24 h, and then with a cocktail of 40 pM hTGFβ, 100 ng/ml h/mIFNγ (PeproTech, Israel) and 150 μM Kynurenine (Sigma, Switzerland) for an additional 24 h before they were used for experiments.
RNA extraction and PCR analysis. Total cellular RNA was extracted using RNeasy® Mini Kit columns (QIAGEN) according to the manufacturer's protocols. 1 μg of total RNA was used to synthesize cDNA using High-Capacity cDNA kit (Applied Biosystems) following the supplier's instructions. Detection of transcript levels of iNOS, IDO, COX2, IL-6, CYP1a1 and CYP1b1, were performed using the TaqMan Gene Expression Assay Kit (Applied Biosystems), using HPRT-1 as a reference. All primers were purchased from Applied Biosystems. Real-Time PCR reactions were conducted using StepOne Plus (Applied Biosystems). Data was analyzed by StepOne Software version 2.2 (Applied Biosystems). […]

hMSCs [2] = assay: qPCR expression analysis in treated human MSCs; type: cell-based; conditions: for upregulation of COX2 by kynurenine: human MSCs, presence or absence of 10 μM CH-223191
Description: Human MSCs (hMSCs). Bone marrow for hMHC was obtained from 17 adult healthy donors, males and females, following informed consent and under institutional Helsinki approval; hMSCs were cultured as previously described and the cells were used for experiments after 3-6 passages (Resnick, Barkats et al. 2013). TCT MSCs were treated with 40pM hTGFβ (PeproTech, Israel) for 24 h, and then with a cocktail of 40 pM hTGFβ, 100 ng/ml h/mIFNγ (PeproTech, Israel) and 150 μM Kynurenine (Sigma, Switzerland) for an additional 24 h before they were used for experiments. RNA extraction and PCR analysis. Total cellular RNA was extracted using RNeasy® Mini Kit columns (QIAGEN) according to the manufacturer's protocols. 1 μg of total RNA was used to synthesize cDNA using High-Capacity cDNA kit (Applied Biosystems) following the supplier's instructions. Detection of transcript levels of iNOS, IDO, COX2, IL-6, CYP1a1 and CYP1b1, were performed using the TaqMan Gene Expression Assay Kit (Applied Biosystems), using HPRT-1 as a reference. All primers were purchased from Applied Biosystems. Real-Time PCR reactions were conducted using StepOne Plus (Applied Biosystems). Data was analyzed by StepOne Software version 2.2 (Applied Biosystems).

mMSCs [3] = assay: FACS analysis of surface expression on mouse MSCs; type: cell-based; conditions: for EGFR surface expression: kynurenine 5 hours, with/without 10 μM CH-223191 pre-treatment 16 hours; for MHC I expression: FACS
Description: as §1
(§2) FACS analysis. The phenotype of the MSCs was analyzed by FACS using anti-CD29-PB and anti-hCD45-FITC (Biolegend), anti-CD11b-APC, anti-CD44-PE and anti-mCD45-FITC (SouthernBiotech), anti-CD105-PB, anti-CD73-PE, anti-CD90-PE and anti-Sca1-PE (eBioscience), anti-CD44-V450, anti-CD105-APC, anti-HLA DR-APC and anti-HLA ABC-PE (BD Bioscience) antibodies. The expression level of PD-L1 in mMSCs was analyzed by FACS with anti-B7-H1-PE (PD-L1) (eBioscience). To analyze EGFR internalization in kynurenine treated mMSCs, mMSCs were cultured in the presence of 10 μM CH223191 (Merck-Millipore) for 16 hours and then kynurenine was added for an additional 5 hours. EGFR expression was analyzed by FACS using anti-EGFR-PE (Bioss). FACS was performed using the aMACSQuant analyzer (Miltenyi Biotech, Germany) and the data was analyzed using FCS Express V3 software.

[4] = molecular target: T1, aryl hydrocarbon receptor (AhR) (Mus musculus, UniProt P30561); assay: AhR activation in mouse MSCs (qPCR of AhR dependent genes Cyp1a1, Cyp1b1); type: cell-based
T1 construct: Mouse and human MSCs were obtained from C57BL/6 mice and healthy donor BM respectively; endogenous in cells; host or cells: primary mouse MSCs from C57BL/6 mice
T1 sequence (P30561 10-805 limits assumed): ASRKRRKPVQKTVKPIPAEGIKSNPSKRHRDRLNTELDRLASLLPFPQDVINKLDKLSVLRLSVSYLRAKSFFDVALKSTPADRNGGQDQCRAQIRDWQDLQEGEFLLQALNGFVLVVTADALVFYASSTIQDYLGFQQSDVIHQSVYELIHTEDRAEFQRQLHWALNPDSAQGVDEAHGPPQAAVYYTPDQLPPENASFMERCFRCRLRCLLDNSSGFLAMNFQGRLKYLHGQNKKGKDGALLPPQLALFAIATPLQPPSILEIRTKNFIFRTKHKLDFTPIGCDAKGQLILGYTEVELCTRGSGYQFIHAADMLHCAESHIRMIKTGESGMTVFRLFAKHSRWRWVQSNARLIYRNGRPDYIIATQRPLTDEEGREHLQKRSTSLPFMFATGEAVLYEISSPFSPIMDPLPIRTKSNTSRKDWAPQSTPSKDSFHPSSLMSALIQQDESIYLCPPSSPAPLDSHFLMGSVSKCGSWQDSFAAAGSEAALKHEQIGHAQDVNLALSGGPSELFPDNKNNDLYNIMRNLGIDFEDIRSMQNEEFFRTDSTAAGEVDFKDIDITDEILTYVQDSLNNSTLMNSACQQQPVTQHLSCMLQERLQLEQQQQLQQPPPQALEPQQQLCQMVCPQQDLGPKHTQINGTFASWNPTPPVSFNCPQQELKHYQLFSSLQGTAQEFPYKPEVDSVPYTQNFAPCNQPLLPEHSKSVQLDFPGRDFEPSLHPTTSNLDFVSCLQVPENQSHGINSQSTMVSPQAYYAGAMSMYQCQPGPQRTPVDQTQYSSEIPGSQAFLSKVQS
Description: (§3) RNA extraction and PCR analysis. Total cellular RNA was extracted using RNeasy® Mini Kit columns (QIAGEN) according to the manufacturer's protocols. 1 μg of total RNA was used to synthesize cDNA using High-Capacity cDNA kit (Applied Biosystems) following the supplier's instructions. Detection of transcript levels of iNOS, IDO, COX2, IL-6, CYP1a1 and CYP1b1, were performed using the TaqMan Gene Expression Assay Kit (Applied Biosystems), using HPRT-1 as a reference. All primers were purchased from Applied Biosystems. Real-Time PCR reactions were conducted using StepOne Plus (Applied Biosystems). Data was analyzed by StepOne Software version 2.2 (Applied Biosystems).
(§4) To evaluate whether kynurenine activates AhR in mMSCs, the mRNA of treated/non-treated MSCs were tested for the expression level of two AhR dependent genes, Cyp1a1 and Cyp1b1. […] To ascertain that the up-regulation of these genes is AhR dependent, MSCs were treated with kynurenine for 24 hours in the presence/absence of the AhR antagonist CH-223191. The up-regulation of Cyp1a1 by kynurenine is inhibited in the presence of the antagonist both in mouse and human MSCs (previous FIGS. 9B, C).

[5] = molecular target: T2, aryl hydrocarbon receptor (AhR) (Homo sapiens, UniProt P35869); assay: AhR activation in human MSCs (qPCR of AhR dependent gene Cyp1a1); type: cell-based
T2 construct: Mouse and human MSCs were obtained from C57BL/6 mice and healthy donor BM respectively; endogenous in cells; host or cells: primary human MSCs from healthy donor bone marrow
T2 sequence (P35869 11-848): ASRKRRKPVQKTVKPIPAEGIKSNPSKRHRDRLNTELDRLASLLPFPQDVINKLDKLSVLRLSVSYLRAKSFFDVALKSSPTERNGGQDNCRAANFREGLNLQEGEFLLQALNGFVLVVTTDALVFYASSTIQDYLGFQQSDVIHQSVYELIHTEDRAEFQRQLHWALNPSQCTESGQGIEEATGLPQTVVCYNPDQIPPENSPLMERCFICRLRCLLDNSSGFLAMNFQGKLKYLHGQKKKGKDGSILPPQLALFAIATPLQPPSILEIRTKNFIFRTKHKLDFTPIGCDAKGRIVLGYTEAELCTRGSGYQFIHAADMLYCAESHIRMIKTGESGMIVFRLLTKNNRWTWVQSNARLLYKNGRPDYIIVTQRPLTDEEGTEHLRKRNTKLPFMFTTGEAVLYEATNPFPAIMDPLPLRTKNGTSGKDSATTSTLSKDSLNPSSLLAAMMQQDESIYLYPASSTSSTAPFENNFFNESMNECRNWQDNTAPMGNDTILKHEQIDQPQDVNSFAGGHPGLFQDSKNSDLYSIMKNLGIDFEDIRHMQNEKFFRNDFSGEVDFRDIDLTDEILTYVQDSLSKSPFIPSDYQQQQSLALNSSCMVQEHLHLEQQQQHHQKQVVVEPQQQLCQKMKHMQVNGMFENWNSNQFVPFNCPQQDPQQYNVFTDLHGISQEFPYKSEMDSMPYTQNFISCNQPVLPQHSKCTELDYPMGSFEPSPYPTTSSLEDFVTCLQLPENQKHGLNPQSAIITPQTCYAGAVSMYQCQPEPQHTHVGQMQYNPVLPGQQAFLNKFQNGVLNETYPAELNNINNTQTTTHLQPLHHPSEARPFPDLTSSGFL
Description: as §3, §4

mMSCs [6] = assay: ELISA on supernatants of treated mMSCs; type: cell-based, mouse
Description: ELISA. Quantification of PGE2 in supernatants collected from treated mMSCs and from co-cultures with splenocytes after 72 hours of culture, was performed by competitive enzyme-linked immunosorbent assay (ELISA) technique using a commercially available ELISA kit (R&D Systems, Minn., USA). IL-6, IL-17A and IFNγ in supernatants collected from treated mMSCs and/or from co-cultures with splenocytes/PBMCs were quantified using the ELISA Ready SET Go kits (eBioscience, San Diego, Calif., USA), according to the manufacturer's instructions. All determinations were made in triplicates.

hMSCs [7] = assay: FACS analysis of surface expression on human MSCs; type: cell-based; conditions: IFNγ induced
Description: as §1, §2

[8] = mouse MSCs, presence or absence of 10 μM CH-223191
[9] = kynurenine 24 hours, 10 μM CH-223191
[10] = murine MSCs, kynurenine alone vs non-treated

Q: With `Cc1ccccc1N=Nc1ccc(NC(=O)c2ccnn2C)c(C)c1` [CH-223191] as the compound, how does the “IL-6 mRNA expression” value (mMSCs [1]; mMSCs) read?
A: partially reversed the effects of kynurenine

Q: And the “enhanced expression of LIF” value (mMSCs [1]; [8])?
A: reversed

Q: What about the “upregulation of COX2 by kynurenine” value (mMSCs [1]; [8]) of the same compound?
A: reversed

Q: What about the “upregulation of COX2 by kynurenine” value (hMSCs [2]) of the same compound?
A: reversed

Q: And the EGFR surface expression (mMSCs [3])?
A: restored EGFR expression on the cell surface

Q: And the “up-regulation of Cyp1a1 by kynurenine in presence of antagonist” value [4, 9]?
A: inhibited

Q: What about the “up-regulation of Cyp1a1 by kynurenine in presence of antagonist” value [5, 9] of the same compound?
A: inhibited

Q: Which “COX2 mRNA expression” value (mMSCs [1]; mMSCs) does the source give for IFNγ here?
A: no effect

Q: And the “MHC I expression” value (mMSCs [3])?
A: induces up-regulation

Q: And the PGE2 secretion (mMSCs [6]; mMSCs supernatants)?
A: no effect

Q: For `Nc1ccccc1C(=O)CC(N)C(=O)O` (stereo not shown) [kynurenine], which “IL-6 mRNA expression” value (mMSCs [1]; mMSCs) is on record?
A: restricted this elevation

Q: And the “HO-1 mRNA expression” value (mMSCs [1]; mMSCs, kynurenine added to the DCT)?
A: significantly up-regulated

Q: What about the “COX2 mRNA expression” value (mMSCs [1]; mMSCs) of the same compound?
A: significant additive effects on the up-regulation

Q: What about the “upregulation of COX2 by kynurenine” value (mMSCs [1]; [8]) of the same compound?
A: AhR dependent

Q: What about the COX2 expression (mMSCs [1]; [10]) of the same compound?
A: no effect

Q: What about the IDO expression (mMSCs [1]; [10]) of the same compound?
A: no effect

Q: What about the IL6 expression (mMSCs [1]; [10]) of the same compound?
A: no effect

Q: And the iNOS expression (mMSCs [1]; [10])?
A: no effect

Q: And the “COX2 mRNA expression” value (hMSCs [2]; hMSCs, addition of kynurenine)?
A: significantly elevated

Q: What about the “upregulation of COX2 by kynurenine” value (hMSCs [2]) of the same compound?
A: AhR dependent

Q: And the EGFR surface expression (mMSCs [3])?
A: significantly reduced

Q: What about the IL-6 secretion (mMSCs [6]; mMSCs culture medium) of the same compound?
A: restricted this elevation

Q: What about the AhR activation [4] of the same compound?
A: activates

Q: And the AhR activation [5]?
A: activates

Q: What does the source list for TGFβ?
A: COX2 mRNA expression (mMSCs [1]; mMSCs): increased; MHC I expression (mMSCs [3]): reduced the elevated expression; MHC I expression (hMSCs [7]): reduced the IFNγ induced expression; MHC II expression (hMSCs [7]): reduced the IFNγ induced expression
